The values that follow come from article PMC10272112 (Nature Communications, 2023).

Assay [1] has as its target T1, HDAC3/NcoR2 complex (Homo sapiens, UniProt O15379).
T1 construct: purchased BPS Bioscience 50003
The experiment in a line: HDAC-Glo assay. To be noted: read-out: log EC50 from dose-dependent HDAC inhibition curves (converted). The assay is classed as biochemical. How it is done: (§1) To validate the inhibition of HDACs by LA and LM and elaborate on the structure-activity relationship (SAR) of enantiomers as well as oxidized versus reduced forms of the molecules, we performed enzyme activity assays for recombinant HDAC1,2,3,6,8 as well as FRET-based binding assay for recombinant HDAC10.
(§2) The experiments were performed according to ref. [48]. […] Drug dosing was performed with a D300e Digital Dispenser (Tecan). HDACs (7 ng/mL for HDAC1, 25 ng/mL for HDAC2, 200 ng/mL for HDAC3/Ncor2 complex, 100 ng/mL for HDAC6, 200 ng/mL for HDAC8) and inhibitors were incubated together at room temperature (RT) for 30 min. After the addition of the HDAC-Glo™ I/II reagent, plates were shaken (800 rpm orbital shaker, 30 s), centrifuged (300 g, 1 min), and incubated at RT for 30 min. Luminescence was detected with a CLARIOstar (BMG Labtech) plate reader.

The target of assay [2] is HDAC2 (Homo sapiens, UniProt Q92769). The experiment in a line: HDAC-Glo assay. The assay is classed as biochemical. To be noted: read-out: log EC50 from dose-dependent HDAC inhibition curves (converted). The arrangement: purchased BPS Bioscience 50002. How it is done:
as §1, §2

In assay [3] the target is T2, HDAC6 (Homo sapiens, UniProt Q9UBN7).
T2 sequence (Q9UBN7 1-1215): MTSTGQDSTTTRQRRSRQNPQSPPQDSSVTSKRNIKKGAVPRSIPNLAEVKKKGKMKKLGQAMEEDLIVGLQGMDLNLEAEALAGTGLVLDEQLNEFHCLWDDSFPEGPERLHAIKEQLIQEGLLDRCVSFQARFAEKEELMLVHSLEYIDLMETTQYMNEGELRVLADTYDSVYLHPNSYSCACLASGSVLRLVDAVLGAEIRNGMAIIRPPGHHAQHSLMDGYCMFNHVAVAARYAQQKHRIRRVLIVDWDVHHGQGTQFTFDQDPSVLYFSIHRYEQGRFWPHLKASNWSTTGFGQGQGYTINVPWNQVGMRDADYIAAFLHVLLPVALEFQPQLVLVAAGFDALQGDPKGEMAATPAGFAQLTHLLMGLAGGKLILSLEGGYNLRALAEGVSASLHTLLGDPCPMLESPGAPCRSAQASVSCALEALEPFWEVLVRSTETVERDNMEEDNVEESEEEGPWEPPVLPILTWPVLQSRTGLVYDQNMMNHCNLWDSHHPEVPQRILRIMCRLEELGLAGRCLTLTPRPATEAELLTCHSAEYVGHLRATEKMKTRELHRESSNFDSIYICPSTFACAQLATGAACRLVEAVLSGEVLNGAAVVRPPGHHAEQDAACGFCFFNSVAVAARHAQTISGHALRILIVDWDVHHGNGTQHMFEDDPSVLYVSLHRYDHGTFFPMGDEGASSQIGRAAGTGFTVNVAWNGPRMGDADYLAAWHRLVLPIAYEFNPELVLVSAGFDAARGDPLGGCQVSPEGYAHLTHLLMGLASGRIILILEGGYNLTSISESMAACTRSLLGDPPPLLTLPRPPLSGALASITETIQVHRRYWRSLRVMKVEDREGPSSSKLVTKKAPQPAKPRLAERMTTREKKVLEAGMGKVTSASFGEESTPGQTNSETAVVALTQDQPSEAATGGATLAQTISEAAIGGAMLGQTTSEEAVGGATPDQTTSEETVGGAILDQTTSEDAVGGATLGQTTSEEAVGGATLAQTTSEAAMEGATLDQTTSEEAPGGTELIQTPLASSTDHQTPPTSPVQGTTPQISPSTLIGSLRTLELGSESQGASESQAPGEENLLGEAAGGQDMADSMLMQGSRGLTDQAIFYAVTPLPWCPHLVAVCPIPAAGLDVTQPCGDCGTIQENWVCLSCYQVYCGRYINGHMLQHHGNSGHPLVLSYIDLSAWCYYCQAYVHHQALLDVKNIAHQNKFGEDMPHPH
The experiment in a line: HDAC-Glo assay. Format: biochemical. Also on record: purchased BPS Bioscience 50006. The settings on record: for HDAC6 relative activity: sheet S2d. How it is done: as §1, §2

Assay [4] deals with T3, HDAC8 (Homo sapiens, UniProt Q9BY41).
T3 sequence (Q9BY41 1-377): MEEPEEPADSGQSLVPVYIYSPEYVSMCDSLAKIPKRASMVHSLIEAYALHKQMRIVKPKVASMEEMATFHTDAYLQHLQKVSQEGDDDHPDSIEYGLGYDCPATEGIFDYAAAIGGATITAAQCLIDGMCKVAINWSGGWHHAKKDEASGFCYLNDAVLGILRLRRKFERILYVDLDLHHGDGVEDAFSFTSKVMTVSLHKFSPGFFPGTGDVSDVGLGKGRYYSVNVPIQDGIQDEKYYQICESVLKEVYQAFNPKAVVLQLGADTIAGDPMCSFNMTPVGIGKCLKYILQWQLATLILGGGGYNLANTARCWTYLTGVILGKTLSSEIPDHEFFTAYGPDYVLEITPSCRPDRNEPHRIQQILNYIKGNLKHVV
Nature of the assay: HDAC-Glo assay. The assay is classed as biochemical. Also on record: purchased BPS Bioscience 50008. The settings on record: for HDAC8 relative activity: sheet S2d. The method, then:
as §1, §2

Assay [5] addresses HDAC1 (Homo sapiens, UniProt Q13547). The experiment in a line: HDAC-Glo assay. The assay is classed as biochemical. Also on record: purchased BPS Bioscience 50051. To be noted: for raw luminescence signal, HDAC1 inhibition: 0.5 M TCEP; for HDAC1 relative activity: sheet S2d. How it is done: as §1, §2
For assay [6], the system named is α-Tubulin AcK40. The experiment in a line: α-tubulin acetylation detection by western blot, CBP-HA transfected HEK293T. The assay is classed as cell-based. The settings on record: HEK293T, ACY-738 5 µM. The method, then: (§3) 0.2 × 10^6 HEK293T (ATCC: CRL-3216) cells were transfected with pcDNA 3.1-HA CBP plasmids (1 μg/well for the 6-well plate) by FuGENE. After 2 days, cells were treated with ACY-738, lipoic acid, and lipoamide for 7 h, then were washed by ice-cold PBS and lysed in Triton lysis buffer (50 mM Tris, pH 8.0, 150 mM NaCl, 1 mM EDTA, 0.1% TritonX-100 and complete EDTA-free protease inhibitors (Roche)) for analysis. To detect protein acetylation, 0.2 μM Trichostatin A and 5 mM nicotinamide were added to PBS for washing, and 10 μM trichostatin A, 10 mM nicotinamide, and 50 mM sodium butyrate were added to Triton lysis buffer.

The subject of assay [7] is DDX3X AcK118. Nature of the assay: DDX3X acetylation detection by western blot, CBP-HA transfected HEK293T. Format: cell-based. The settings on record: 5 µM. The method, then:
as §3

In assay [8] the test system is A549 cells. The experiment in a line: CellRox deep red assay for ROS quantification (with or without arsenite). Format: cell-based. The settings on record: sheet 4d.
In assay [9] the test system is A549 cells. Nature of the assay: CellRox deep red assay for tBuOOH-induced ROS. To be noted: NAC 500 ?M; sheet 4c; DMSO mean = 1.
Experimental: A549 cells were maintained in DMEM (Sigma) supplemented with 10% fetal bovine serum (Pan Biotech). […] The CellRox assay was performed according to the product guidelines (ThermoFisher). Briefly, cells were treated with lipoic acid, N-acetyl-cysteine (NAC), or vector control (DMSO) for 1 h, followed by a 2 h treatment with 200 µM tert-butyl hydroperoxide, and then stained with 5 µM CellRox Deep Red for 1 h. Cells were washed twice with FluoroBrite DMEM (ThermoFisher) supplemented with 10% FBS before imaging. CellRox Deep Red signal intensity was measured on a Leica DMI 6000 B epifluorescent microscope with a Cy5 filter set. […] Significance was calculated by ANOVA with a post hoc Dunnett’s multiple comparisons test against the DMSO control (GraphPad).
The subject of assay [10] is HDACs (HDAC1, HDAC2, HDAC6). Also on record: method as in earlier work. To be noted: ref Bantscheff et al., Nat Biotech, 2011; Lechner et al., Nat Chem Bio, 2023; read-out: EC50 in comparable chemoproteomic competition assays; cited from earlier work.
The subject of assay [11] is DDX3X AcK118. To be noted: 10 µM; cited from earlier work.
[12] abbreviates: read-out: log EC50 from dose-dependent HDAC inhibition curves (converted).

Values joined by “and” are separate entries in the source; they are usually repeats but may differ in a detail not shown here. Identical values can stand only once.

Sequence of HDAC1 (Q13547 whole entry): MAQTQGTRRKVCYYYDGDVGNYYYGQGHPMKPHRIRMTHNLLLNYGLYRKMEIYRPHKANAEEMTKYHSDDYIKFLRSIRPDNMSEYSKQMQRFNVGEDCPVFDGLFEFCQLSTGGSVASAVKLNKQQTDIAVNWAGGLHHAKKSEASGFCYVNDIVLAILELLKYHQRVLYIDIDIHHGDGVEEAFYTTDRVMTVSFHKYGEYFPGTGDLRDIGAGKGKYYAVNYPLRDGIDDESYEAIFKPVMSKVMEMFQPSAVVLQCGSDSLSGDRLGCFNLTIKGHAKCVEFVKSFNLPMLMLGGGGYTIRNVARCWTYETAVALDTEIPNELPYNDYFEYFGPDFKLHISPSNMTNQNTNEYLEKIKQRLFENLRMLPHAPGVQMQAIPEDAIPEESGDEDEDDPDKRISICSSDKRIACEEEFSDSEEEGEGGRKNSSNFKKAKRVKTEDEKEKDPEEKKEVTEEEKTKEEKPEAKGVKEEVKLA
T1 sequence (O15379 whole entry): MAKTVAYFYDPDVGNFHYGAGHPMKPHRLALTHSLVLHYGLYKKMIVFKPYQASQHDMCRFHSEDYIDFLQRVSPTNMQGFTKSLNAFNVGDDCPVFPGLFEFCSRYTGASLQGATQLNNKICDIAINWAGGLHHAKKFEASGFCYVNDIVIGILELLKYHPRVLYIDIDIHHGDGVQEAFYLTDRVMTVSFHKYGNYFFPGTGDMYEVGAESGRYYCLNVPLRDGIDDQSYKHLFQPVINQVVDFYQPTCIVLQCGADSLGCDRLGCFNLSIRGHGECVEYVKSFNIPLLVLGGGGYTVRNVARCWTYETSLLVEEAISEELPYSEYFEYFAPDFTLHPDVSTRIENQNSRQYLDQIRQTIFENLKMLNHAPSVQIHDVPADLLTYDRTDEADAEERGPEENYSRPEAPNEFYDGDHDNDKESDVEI
T1 sequence (Q9Y618 395-489 partner limits assumed): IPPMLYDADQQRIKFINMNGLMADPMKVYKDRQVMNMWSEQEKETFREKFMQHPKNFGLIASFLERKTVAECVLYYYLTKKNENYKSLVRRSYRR
Sequence of HDAC2 (Q92769 whole entry): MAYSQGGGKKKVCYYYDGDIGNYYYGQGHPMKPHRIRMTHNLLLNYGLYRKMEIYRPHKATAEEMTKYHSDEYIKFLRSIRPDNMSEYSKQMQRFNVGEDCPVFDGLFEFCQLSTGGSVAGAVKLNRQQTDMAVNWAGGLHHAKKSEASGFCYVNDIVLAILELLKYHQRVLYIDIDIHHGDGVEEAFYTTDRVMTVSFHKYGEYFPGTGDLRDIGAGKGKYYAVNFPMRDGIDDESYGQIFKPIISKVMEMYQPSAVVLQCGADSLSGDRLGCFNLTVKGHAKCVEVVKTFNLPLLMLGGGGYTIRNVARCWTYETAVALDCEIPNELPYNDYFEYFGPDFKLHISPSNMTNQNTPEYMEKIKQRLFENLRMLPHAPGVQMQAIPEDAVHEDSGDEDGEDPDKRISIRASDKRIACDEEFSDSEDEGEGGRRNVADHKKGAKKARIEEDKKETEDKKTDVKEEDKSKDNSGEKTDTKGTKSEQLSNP

Usually EC50 stands for the concentration giving half of the maximal effect. On to `O=C(O)CCCCC(S)CCS` (racemic) [RS LA reduced, (R/S)-dihydrolipoic acid], for which the EC50 was 47.5 µM in assay [1]; 33.4 µM in assay [2]; 2.42 µM in assay [3] (setting [12]); 20.2 µM in [4] (setting [12]); 15.1 µM in [5] (setting [12]). In addition, the “raw luminescence signal, HDAC1 inhibition” value was 10948 and 11336 and 10633 in assay [5] (log10 M -3.30103, 3 technical replicates); 35128 and 33959 and 34884 in [5] (log10 M -3.82945, 3 technical replicates); 100059 and 96489 and 102534 in assay [5] (log10 M -4.35788, 3 technical replicates); 200567 and 200318 and 195985 in assay [5] (log10 M -4.88629, 3 technical replicates); 315045 and 314071 and 307544 in assay [5] (log10 M -5.41477, 3 technical replicates); 353287 and 345284 and 342473 in assay [5] (log10 M -5.94309, 3 technical replicates). For the same compound, the “raw luminescence signal, HDAC1 inhibition” value is 372512 and 378178 and 378301 in assay [5] (log10 M -6.47756, 3 technical replicates); 385390 and 377410 and 356944 in assay [5] (log10 M -6.87615, 3 technical replicates).
As for `O=C(NO)c1cnc(NC2(c3ccccc3)CC2)nc1` [ACY-738], the “α-Tubulin AcK40 acetylation level relative to control” value in assay [6] is on record as 6.5 fold. Besides, the results for the “DDX3X AcK118 acetylation level relative to control” value in assay [7] and in assay [7] (listed as ACY738) were 3.0 fold and 3 fold, respectively.
With `O=C(O)CCCCC(S)CCS` (stereo not shown) [LAred], the HDAC6 relative activity in assay [3] (log conc -3.30103) was 1.901 and 1.871 and 1.9083; in assay [3] (log conc -3.82945), 3.442 and 3.206 and 3.406; in assay [3] (log conc -4.35788) it was 6.925 and 6.75 and 6.858; in assay [3] (log conc -4.88629), 16.7633 and 15.9117 and 16.5726; in [3] (log conc -5.41477) it was 38.1371 and 36.4753 and 35.86; in assay [3] (log conc -5.94309), 60.9287 and 58.1296 and 64.9441. Besides, the HDAC6 relative activity in assay [3] (log conc -6.47756) was 84.471 and 78.2193 and 82.7984; in [3] (log conc -6.87615), 87.6459 and 83.3784 and 85.1621. Further, the HDAC8 relative activity in assay [4] (log conc -3.30103) is 5.5387 and 6.443 and 4.956; in assay [4] (log conc -3.82945) it was 15.2478 and 14.986 and 14.6707; in [4] (log conc -4.35788), 32.9883 and 33.8093 and 29.5437; in assay [4] (log conc -4.88629), 65.7743 and 68.9393 and 55.1609; in assay [4] (log conc -5.41477), 94.4673 and 96.4781 and 81.2779; in [4] (log conc -5.94309) it was 99.9702 and 99.768 and 95.3061. Moreover, the HDAC8 relative activity in assay [4] (log conc -6.47756) was 102.1 and 101.594 and 89.0594; in assay [4] (log conc -6.87615) it was 104.349 and 101.731 and 91.7247. Further, the HDAC1 relative activity in [5] (log conc -3.30103) is 2.768 and 2.872 and 2.683; in assay [5] (log conc -3.82945), 9.265 and 8.951 and 9.199; in assay [5] (log conc -4.35788) it was 26.7114 and 25.7521 and 27.3764; in assay [5] (log conc -4.88629), 53.7175 and 53.6506 and 52.4863; in assay [5] (log conc -5.41477) it was 84.4773 and 84.2156 and 82.4618; in assay [5] (log conc -5.94309), 94.7528 and 92.6024 and 91.8471. In addition, the HDAC1 relative activity is 99.9185 and 101.441 and 101.474 in [5] (log conc -6.47756); 103.379 and 101.234 and 95.7354 in [5] (log conc -6.87615).
Consider `CC(=O)N[C@@H](CS)C(=O)O` [NAC, N-acetyl-cysteine], for which, in [8] (NAC +Ars), the “ROS (CellRox), relative to DMSO -Ars., Mean” value is listed as 0.6662; the “ROS (CellRox), relative to DMSO -Ars., replicate values” is 0.6371 and 0.672 and 0.6896. In addition, in [9], the “tBuOOH-induced ROS (CellRox), relative to DMSO, Mean” value was found to be 0.6999; the “tBuOOH-induced ROS (CellRox), relative to DMSO, replicate values” was 0.7684 and 0.7006 and 0.6306.
Turning to `O=C(O)CCCc1ccccc1` [Phenylbutyric acid], the EC50 in [10] was 300 to 500 µM.
Turning to `CC(C)(C)OO` [TBHP], in assay [8] (TBHP -Ars), the “ROS (CellRox), relative to DMSO -Ars., Mean” value is reported as 8.0156; the “ROS (CellRox), relative to DMSO -Ars., replicate values” was 8.277 and 8.688 and 7.082.
Turning to `CN1CCc2c(c3ccccc3n2Cc2ccc(C(=O)NO)cc2)C1` [Tubastatin A], the DDX3X hyperacetylation in [11] was 2.6 fold.
Take `CCCC(CCC)C(=O)O` [Valproic acid]: the EC50 in assay [10] was 300 to 500 µM.
